Test results as given in US11629171B2, “Beta-hairpin peptidomimetics” (POLYPHOR AG, priority 2017, dated 2023).
Values after ≈ are worked out from the molar mass of the structure shown. Where a SMILES comes first, the peptide text is derived from it. Bridges are numbered along the chain shown (N, C = ends). Roman numbers before positions name the chains, in order. [ ]: non-standard residue; d: D form. Tle = CC(C)(C)[C@H](N)C(=O)O; Hiv = CC(C)[C@H](O)C(=O)O; dDab = NCC[C@@H](N)C(=O)O; hSer = N[C@@H](CCO)C(=O)O; Orn = NCCC[C@H](N)C(=O)O; Dab = NCC[C@H](N)C(=O)O; Dap = NC[C@H](N)C(=O)O

How the values were obtained:
Format in all cases: cell-based
[1] = test system: human red blood cells (hRBC); test: Hemolysis; conditions: red cells of human, 1 h, 200
Summary of the method: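 Hemoglobin release from PBS-washed hRBC at 20% (v/v), incubated 1 h at 37° C with peptides at 200 μg/mL, is measured at 540 nm. Values are blank corrected and given as a fraction of Triton X-100 lysis × 100%.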

[2] = test system: Acinetobacter baumannii 872842; conditions: 872842
Summary of the method: (§1)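 Visible-growth endpoint after 18-20 h at 35° C defines the MIC (μg/mL). Setup: CLSI broth microdilution, MH-II cation-adjusted broth with P-80 at 0.002% final, inoculum of approximately 10^6 CFU/mL, two-fold serial peptide dilutions.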

[3] = test system: Escherichia coli ATCC 25922; conditions: ATCC 25922
Summary of the method: as §1

[4] = test system: Acinetobacter baumannii DSM 30008; conditions: DSM 30008
Summary of the method: as §1

[5] = test system: Pseudomonas aeruginosa ATCC 27853; conditions: ATCC 27853
Summary of the method: as §1

[6] = test system: Klebsiella pneumoniae 968733; conditions: 968733
Summary of the method: as §1

[7] = test system: Enterobacter cloacae 848840; conditions: 848840
Summary of the method: as §1

[8] = test system: Klebsiella pneumoniae SSI #3010; conditions: SSI #3010
Summary of the method: as §1

Escherichia coli 926415 = conditions: 926415
Summary of the method: as §1

Row | Structure (SMILES) | Hemolysis at 200 μg/mL [1] [%] | MIC [2] [µg/mL] | MIC [3] [µg/mL] | MIC [4] [µg/mL] | MIC [5] [µg/mL] | MIC [6] [µg/mL] | MIC [7] [µg/mL] | MIC [8] [µg/mL] | MIC (Escherichia coli 926415) [µg/mL] | Escherichia coli ATCC 25922 MIC [3] [µg/mL] | Acinetobacter baumannii DSM 30008 MIC [4] [µg/mL] | Pseudomonas aeruginosa ATCC 27853 MIC [5] [µg/mL] | Klebsiella pneumoniae SSI #3010 MIC [8] [µg/mL]
1 | CC(=O)N[C@H](C(=O)N[C@H]1CCNC(=O)[C@@H]([C@H](C)O)NC(=O)[C@H](C(C)(C)C)NC(=O)[C@H](CO)NC(=O)[C@H](Cc2c[nH]c3ccccc23)NC(=O)[C@H](CCO)NC(=O)[C@@H](CCN)NC(=O)[C@H](CCC(=O)N[C@@H](CCN)C(=O)N[C@H](C(=O)N[C@@H](CN)C(=O)N[C@H]2CCNC(=O)[C@H]([C@@H](C)O)NC(=O)[C@H](CCN)NC(=O)[C@H](CCN)NC(=O)[C@H](CC(C)C)NC(=O)[C@@H](CC(C)C)NC(=O)[C@H](CCN)NC2=O)[C@@H](C)O)NC(=O)[C@H](CN)NC(=O)[C@H](Cc2ccc(O)cc2)NC1=O)C(C)C [Ex. 35] (I: Ac-V[Dab]Y[Dap]E[dDab][hSer]WS[Tle][dT] / II: [Dab]T[Dap][Dab][Dab][dL]L[Dab][Dab]T; lactam I:2-I:C, II:4-II:C; amide I:5-II:N) | <1 | 0.25 (≈ 0.108 µM) | 0.125 (≈ 0.0542 µM) | 0.125 (≈ 0.0542 µM) | 0.25 (≈ 0.108 µM) | 0.25 (≈ 0.108 µM) | 0.25 (≈ 0.108 µM) | 0.25 (≈ 0.108 µM) | 1 (≈ 0.434 µM) |  |  |  | 
2 | CC(=O)N[C@H](C(=O)N[C@H]1CSSC[C@@H](C(=O)O)NC(=O)[C@H](C(C)C)NC(=O)[C@H](CO)NC(=O)[C@H](Cc2c[nH]c3ccccc23)NC(=O)[C@H](CO)NC(=O)[C@@H](CCN)NC(=O)[C@H](CCC(=O)N[C@@H](CCN)C(=O)N[C@H](C(=O)N[C@@H](CN)C(=O)N[C@H]2CCNC(=O)[C@H]([C@@H](C)O)NC(=O)[C@H](CCN)NC(=O)[C@H](CCN)NC(=O)[C@H](CC(C)C)NC(=O)[C@@H](CC(C)C)NC(=O)[C@H](CCN)NC2=O)[C@@H](C)O)NC(=O)[C@H](CCN)NC(=O)[C@H](Cc2ccc(O)cc2)NC1=O)C(C)C [Ex. 384] (I: Ac-VCY[Dab]E[dDab]SWSVC-OH / II: [Dab]T[Dap][Dab][Dab][dL]L[Dab][Dab]T; disulfide I:2-I:11; amide I:5-II:N; lactam II:4-II:C) | <1 | 2 (≈ 0.865 µM) |  |  |  | >8 | 2 (≈ 0.865 µM) |  | 4 (≈ 1.73 µM) | 0.125 | 1 | 0.5 | 0.25
3 | CC(=O)N[C@H](C(=O)N[C@H]1CSSC[C@@H](C(=O)N[C@@H](CO)C(N)=O)NC(=O)[C@H](C(C)(C)C)NC(=O)[C@H](CO)NC(=O)[C@H](Cc2c[nH]c3ccccc23)NC(=O)[C@H]([C@@H](C)O)NC(=O)[C@@H](CCN)NC(=O)[C@H](CCC(=O)N[C@@H](CCN)C(=O)N[C@H](C(=O)N[C@@H](CCN)C(=O)N[C@H]2CCNC(=O)[C@H]([C@@H](C)O)NC(=O)[C@H](CCN)NC(=O)[C@H](CCN)NC(=O)[C@H](CC(C)C)NC(=O)[C@@H](CC(C)C)NC(=O)[C@H](CCN)NC2=O)[C@@H](C)O)NC(=O)[C@H](CO)NC(=O)[C@H](Cc2ccc(O)cc2)NC1=O)C(C)C [Ex. 46] (I: Ac-VCYSE[dDab]TWS[Tle]CS-NH2 / II: [Dab]T[Dab][Dab][Dab][dL]L[Dab][Dab]T; disulfide I:2-I:11; amide I:5-II:N; lactam II:4-II:C) | 2 | 0.125 (≈ 0.0515 µM) | 0.0625 (≈ 0.0257 µM) | 0.0625 (≈ 0.0257 µM) | 0.125 (≈ 0.0515 µM) | 0.5 (≈ 0.206 µM) | 0.125 (≈ 0.0515 µM) | 0.125 (≈ 0.0515 µM) | 0.125 (≈ 0.0515 µM) |  |  |  | 
4 | CC(C)C[C@@H]1NC(=O)[C@@H](CC(C)C)NC(=O)[C@H](CCN)NC(=O)[C@@H](NC(=O)[C@H](CCN)NC(=O)[C@@H](NC(=O)[C@H](CCN)NC(=O)CC[C@@H]2NC(=O)[C@H](CCN)NC(=O)[C@H](Cc3ccc(O)cc3)NC(=O)[C@@H](NC(=O)[C@@H](O)C(C)C)CSSC[C@@H](C(N)=O)NC(=O)[C@H](C(C)(C)C)NC(=O)[C@H](CO)NC(=O)[C@H](Cc3c[nH]c4ccccc34)NC(=O)[C@H](CCO)NC(=O)[C@@H](CCN)NC2=O)[C@@H](C)O)CCNC(=O)[C@H]([C@@H](C)O)NC(=O)[C@H](CCN)NC(=O)[C@H](CCN)NC1=O [Example 7] (I: H-[Hiv]CY[Dab]E[dDab][hSer]WS[Tle]C-NH2 / II: [Dab]T[Dab][Dab][Dab][dL]L[Dab][Dab]T; disulfide I:2-I:11; amide I:5-II:N; lactam II:4-II:C) | <1 | 1 (≈ 0.432 µM) | 0.125 (≈ 0.054 µM) | 0.0625 (≈ 0.027 µM) | 0.125 (≈ 0.054 µM) | 0.25 (≈ 0.108 µM) | 2 (≈ 0.865 µM) | 0.125 (≈ 0.054 µM) | 0.5 (≈ 0.216 µM) |  |  |  | 
5 | CC(=O)N[C@H](C(=O)N[C@H]1CCCNC(=O)[C@@H]([C@H](C)O)NC(=O)[C@H](C(C)(C)C)NC(=O)[C@H](CO)NC(=O)[C@H](Cc2c[nH]c3ccccc23)NC(=O)[C@H](CCN)NC(=O)[C@@H](CCN)NC(=O)[C@H](CCC(=O)N[C@@H](CCN)C(=O)N[C@H](C(=O)N[C@@H](CN)C(=O)N[C@H]2CCNC(=O)[C@H]([C@@H](C)O)NC(=O)[C@H](CCN)NC(=O)[C@H](CCN)NC(=O)[C@H](CC(C)C)NC(=O)[C@@H](CC(C)C)NC(=O)[C@H](CCN)NC2=O)[C@@H](C)O)NC(=O)[C@H](CO)NC(=O)[C@H](Cc2ccc(O)cc2)NC1=O)C(C)C [Ex. 25] (I: Ac-V[Orn]YSE[dDab][Dab]WS[Tle][dT] / II: [Dab]T[Dap][Dab][Dab][dL]L[Dab][Dab]T; lactam I:2-I:C, II:4-II:C; amide I:5-II:N) | <1 | 0.25 (≈ 0.108 µM) | 0.0625 (≈ 0.0269 µM) | 0.0625 (≈ 0.0269 µM) | 0.25 (≈ 0.108 µM) | 0.25 (≈ 0.108 µM) | 0.125 (≈ 0.0539 µM) | 0.125 (≈ 0.0539 µM) | 0.25 (≈ 0.108 µM) |  |  |  | 
6 | CC(=O)N[C@H](C(=O)N[C@H]1CCN(C)C(=O)C[C@@H](C(=O)N[C@@H](CO)C(N)=O)NC(=O)[C@H](C(C)C)NC(=O)[C@H](CO)NC(=O)[C@H](Cc2c[nH]c3ccccc23)NC(=O)[C@H](CO)NC(=O)[C@@H](CCN)NC(=O)[C@H](CCC(=O)N[C@@H](CCN)C(=O)N[C@H](C(=O)N[C@@H](CN)C(=O)N[C@H]2CCNC(=O)[C@H]([C@@H](C)O)NC(=O)[C@H](CCN)NC(=O)[C@H](CCN)NC(=O)[C@H](CC(C)C)NC(=O)[C@@H](CC(C)C)NC(=O)[C@H](CCN)NC2=O)[C@@H](C)O)NC(=O)[C@H](CCN)NC(=O)[C@H](Cc2ccc(O)cc2)NC1=O)C(C)C [Ex. 302] | 3 | 0.5 (≈ 0.208 µM) |  |  |  | 2 (≈ 0.831 µM) | 0.5 (≈ 0.208 µM) |  | 2 (≈ 0.831 µM) | 0.0625 | 0.125 | 0.125 | 0.125
7 | CC(C)C[C@@H]1NC(=O)[C@@H](CC(C)C)NC(=O)[C@H](CCN)NC(=O)[C@@H](NC(=O)[C@H](CN)NC(=O)[C@@H](NC(=O)[C@H](CCN)NC(=O)CC[C@@H]2NC(=O)[C@@H](CCN)NC(=O)CNC(=O)[C@H](CCN)NC(=O)[C@H](Cc3ccc(O)cc3)NC(=O)[C@@H](NC(=O)[C@@H](O)C(C)C)CSSC[C@@H](C(=O)N[C@H](C(N)=O)[C@@H](C)O)NC(=O)[C@H](C(C)(C)C)NC(=O)[C@H](CO)NC(=O)[C@H](Cc3c[nH]c4ccccc34)NC2=O)[C@@H](C)O)CCNC(=O)[C@H]([C@@H](C)O)NC(=O)[C@H](CCN)NC(=O)[C@H](CCN)NC1=O [Ex. 168] (I: H-[Hiv]CY[Dab]G[dDab]EWS[Tle]CT-NH2 / II: [Dab]T[Dap][Dab][Dab][dL]L[Dab][Dab]T; disulfide I:2-I:11; amide I:7-II:N; lactam II:4-II:C) | <1 | 0.125 (≈ 0.0531 µM) | 0.0625 (≈ 0.0265 µM) | 0.125 (≈ 0.0531 µM) | 0.25 (≈ 0.106 µM) | 0.5 (≈ 0.212 µM) | 0.25 (≈ 0.106 µM) | 0.125 (≈ 0.0531 µM) | 0.125 (≈ 0.0531 µM) |  |  |  | 
8 | CC(=O)N[C@@H](CCN)C(=O)N[C@@H](CC(C)C)C(=O)N[C@H]1CSSC[C@@H](C(=O)N[C@H](C(N)=O)C(C)C)NC(=O)[C@H](C(C)(C)C)NC(=O)[C@@H]2CSSC[C@H](NC(=O)[C@H](Cc3ccc(O)cc3)NC1=O)C(=O)N[C@@H](CCC(=O)N[C@@H](CCN)C(=O)N[C@H](C(=O)N[C@@H](CN)C(=O)N[C@H]1CCNC(=O)[C@H]([C@@H](C)O)NC(=O)[C@H](CCN)NC(=O)[C@H](CCN)NC(=O)[C@H](CC(C)C)NC(=O)[C@@H](CC(C)C)NC(=O)[C@H](CCN)NC1=O)[C@@H](C)O)C(=O)N[C@H](CCN)C(=O)N[C@@H](CCN)C(=O)N[C@@H](Cc1c[nH]c3ccccc13)C(=O)N2 [Ex. 234] (I: Ac-[Dab]LCYCE[dDab][Dab]WC[Tle]CV-NH2 / II: [Dab]T[Dap][Dab][Dab][dL]L[Dab][Dab]T; disulfide I:3-I:12, I:5-I:10; amide I:6-II:N; lactam II:4-II:C) | 9 | 0.25 (≈ 0.0973 µM) | 0.125 (≈ 0.0487 µM) | 0.25 (≈ 0.0973 µM) | 0.5 (≈ 0.195 µM) | 1 (≈ 0.389 µM) | 0.5 (≈ 0.195 µM) | 0.25 (≈ 0.0973 µM) | 0.25 (≈ 0.0973 µM) |  |  |  | 
